Results: patent US20210246109A1, “POTENT AND SELECTIVE INHIBITORS OF CYTOCHROME P450” (University of Kentucky Research Foundation, priority 2020, published 2021)
Where “and” joins values, the source holds several entries; their conditions need not be identical. Equal values may be shown once. Read-outs that look alike come from different tables or passages of the source.

Experiments:
CYP1A1 = target: T1, CYP1A1 (Homo sapiens, UniProt P04798); assay: EROD assay in CYP1A1 counter-screen cell line; assay type: cell-based; details: for SI 1B1:1A1: selectivity index
T1 construct: expressed in transfected cells
T1 sequence (P04798 1-512): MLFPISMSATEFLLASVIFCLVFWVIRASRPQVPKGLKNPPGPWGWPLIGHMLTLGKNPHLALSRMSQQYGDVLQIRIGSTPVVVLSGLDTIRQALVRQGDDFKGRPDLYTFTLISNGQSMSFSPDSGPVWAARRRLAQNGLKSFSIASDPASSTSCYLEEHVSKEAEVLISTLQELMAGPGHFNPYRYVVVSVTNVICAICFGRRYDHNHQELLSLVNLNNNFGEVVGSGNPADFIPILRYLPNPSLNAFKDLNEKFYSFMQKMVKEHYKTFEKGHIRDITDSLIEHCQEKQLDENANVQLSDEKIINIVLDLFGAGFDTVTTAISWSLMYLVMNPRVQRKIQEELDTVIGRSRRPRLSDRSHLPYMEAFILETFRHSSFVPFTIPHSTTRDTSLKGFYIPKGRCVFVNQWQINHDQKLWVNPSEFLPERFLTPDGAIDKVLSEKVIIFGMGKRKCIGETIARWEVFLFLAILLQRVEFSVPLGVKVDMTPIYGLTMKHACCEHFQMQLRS
Experimental: (§1) The activity of the inhibitors was assessed in a novel cell based assay generated for the purpose of this project. Enzymatic turnover of CYP1B1 was measured using the ethoxy-resorufin-O-deethylase (EROD) assay with the fluorescent substrate, resorufin ethyl ether. Cell lines were generated where the gene for CYP1B1 alone or CYP1B1 and cytochrome P450 reductase (CPR) were both under the control of an inducible promoter. A cell line was generated for counter screening where the gene for CYP1A1 was used. CYP1A1 is the closest family member to CYP1B1.

[1] = target: T2, pooled human liver microsomes (pHLMs) (Homo sapiens, UniProt P05177); assay: EROD counterscreen in pooled human liver microsomes; assay type: biochemical; details: for IC50: human, microsomes; for SI 1B1:HLM: selectivity index
T2 sequence (P05177 2-516): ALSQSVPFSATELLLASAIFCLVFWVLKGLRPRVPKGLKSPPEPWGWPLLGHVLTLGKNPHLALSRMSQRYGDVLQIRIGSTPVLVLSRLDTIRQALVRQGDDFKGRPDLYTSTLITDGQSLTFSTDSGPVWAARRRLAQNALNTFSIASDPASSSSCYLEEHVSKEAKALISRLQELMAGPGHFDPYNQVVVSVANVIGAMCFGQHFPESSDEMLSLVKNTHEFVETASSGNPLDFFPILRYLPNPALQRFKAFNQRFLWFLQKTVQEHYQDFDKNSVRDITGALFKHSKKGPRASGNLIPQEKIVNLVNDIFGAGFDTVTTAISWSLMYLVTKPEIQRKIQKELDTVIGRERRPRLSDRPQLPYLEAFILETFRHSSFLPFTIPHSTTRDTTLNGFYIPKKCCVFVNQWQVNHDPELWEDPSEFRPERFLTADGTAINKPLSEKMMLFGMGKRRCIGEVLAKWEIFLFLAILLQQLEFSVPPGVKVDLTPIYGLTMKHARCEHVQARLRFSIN
From the text: (§2) Human liver microsomes were used as a counterscreen to experimentally determine the magnitude of inhibitor selectivity.

[2] = Cytotoxicity, resazurin, 72 hours after compound addition; assay type: cell-based; details: human, HEK cells
Experimental: (§3) Cytotoxicity was assessed at 72 hours after compound addition using resazurin. The compounds that function as selective 1B1 inhibitors had no effect on cell health. This is an essential feature for any chemopreventative agent or molecules intended to block the detrimental action of an enzyme.

HEK = assay: as above; assay type: cell-based; details: Table 3, HEK
Experimental: as §3

CYP1B1 = target: T3, CYP1B1 (Homo sapiens, UniProt Q16678); assay: EROD assay in inducible CYP1B1 cell line; assay type: cell-based
T3 construct: expressed in transfected cells
T3 sequence (Q16678 1-543): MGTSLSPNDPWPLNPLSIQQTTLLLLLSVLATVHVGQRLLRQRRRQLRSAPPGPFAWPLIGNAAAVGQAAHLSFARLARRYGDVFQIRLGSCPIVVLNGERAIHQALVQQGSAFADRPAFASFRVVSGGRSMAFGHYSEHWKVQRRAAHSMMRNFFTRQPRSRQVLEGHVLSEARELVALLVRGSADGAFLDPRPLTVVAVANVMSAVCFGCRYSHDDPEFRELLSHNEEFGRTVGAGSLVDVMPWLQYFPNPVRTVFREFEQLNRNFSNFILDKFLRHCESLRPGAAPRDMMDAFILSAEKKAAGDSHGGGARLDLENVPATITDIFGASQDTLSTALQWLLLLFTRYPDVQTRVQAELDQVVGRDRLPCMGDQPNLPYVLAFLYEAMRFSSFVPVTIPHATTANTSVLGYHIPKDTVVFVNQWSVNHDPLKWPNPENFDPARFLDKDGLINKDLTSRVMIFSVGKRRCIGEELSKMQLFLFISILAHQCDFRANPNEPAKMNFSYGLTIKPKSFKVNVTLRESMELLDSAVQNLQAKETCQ
Experimental: as §1

[3] = target: T2, pooled human liver microsomes (pHLMs); assay: EROD counterscreen in pooled human liver microsomes; assay type: biochemical; set-up: IC50 pHLM; EROD assay; details: human, microsomes, Table 2; EROD assay
From the text: as §2

[4] = human, probe resorufin ethyl ether, Table 3, read-out: IC50 1A1
[5] = Table 1, 72 hours, resazurin, read-out: Cytotoxicity IC50
[6] = Table 2, EROD assay, read-out: IC50 CYP1A1
[7] = Table 2, EROD assay, read-out: IC50 CYP1B1

| SMILES | IC50 ([1]; Table 3, read-out: IC50 pHLM) [µM] | IC50 (CYP1B1; Table 3, read-out: IC50 1B1) | IC50 (CYP1A1; Table 3, read-out: IC50 1A1) | HEK cell viability % at 10 μM (HEK) [%] | other results |
| --- | --- | --- | --- | --- | --- |
| COc1ccc(/C=C/c2ccncn2)c(OC)c1 [GL433] | 0.91 ± 0.37 | 76 nM | – | – | IC50 (CYP1A1; human, probe resorufin ethyl ether, Table 1, read-out: CYP1A1 IC50): 10 µM; IC50 (CYP1A1; [4]): 10 µM; IC50 ([1]; Table 1, read-out: hLM IC50): 1.1 µM; IC50 at 72 h [2, 5]: > 10 µM; IC50 (HEK; read-out: HEK cytotoxicity): > 10 µM; activity as CYP1B1 inhibitor, in words (CYP1B1): potent; IC50 (CYP1B1; Table 1, read-out: CYP1B1 IC50): 76 nM |
| COc1ccc(/C=C/c2cnccn2)c(OC)c1 [GL435] | 1.57 ± 0.29 | 510 nM | 2.6 µM | 71.4 | – |
| COc1cc(/C=C/c2cnccn2)cc(OC)c1 [GL437] | 5.27 ± 1.6 | 660 nM | 4.28 µM and 3.29 µM | 103.1 | – |
| COc1cc(/C=C/c2ccncn2)cc(OC)c1 [GL443] | 2.3 ± 0.98 | 760 nM | > 10 µM | 105.2 | – |
| COc1cc(OC)c(/C=C/c2ccncn2)c(OC)c1 [GL456] | 0.15 ± 0.08 | 210 nM | > 10 µM | 93.6 | IC50 (CYP1A1; [4]): 10 µM |
| COc1ccc(/C=C/c2cccnc2)c(OC)c1 [GL457] | 0.42 ± 0.24 | 310 nM | 0.403 µM and 0.36 µM | 91.5 | – |
| COc1ccc(/C=C/c2cncnc2)c(OC)c1 [GL458] | 2.26 ± 1.05 | 2510 nM | 4.13 µM and 2.5 µM | 95.8 | – |
| COc1cc(/C=C/c2ccncn2)cc(OC)c1OC [GL465] | 4.4 ± 1.71 | 260 nM | 0.73 µM and 0.74 µM | 83.4 | – |
| C#CCOc1ccc(/C=C/c2ccncn2)cc1 [GL508] | 32.9 | 105 nM | 5.6 µM | 93.4 | IC50 (CYP1A1; [4]): 10 µM |
| C#CCOc1ccc(-c2nc3ccccc3c(=O)[nH]2)cc1 [GL510] | 0.857 | – | – | – | IC50 at 72 h ([2]; Table 3, HEK, read-out: HEK cytotoxicity): 0.406 µM |
| O=c1[nH]c(-c2ccc(OC/C(I)=C\I)cc2)nc2ccccc12 [GL511] | 7.71 | 11.8 nM | > 10 µM | 64.3 | – |
| COc1ccc(-c2nc(O)c3ccccc3n2)c(OC)c1 [GL512] | 16.9 | 11.6 nM | 2.4 µM and 1.04 µM | 85.3 | – |
| COc1ccc(-c2nc3ccc(I)cc3c(=O)[nH]2)c(OC)c1 [GL513] | 26.2 | 36 nM | 0.121 µM and 0.075 µM and 0.091 µM | 83.4 | – |
| C#CCn1c(-c2ccc(OC)cc2OC)nc2ccc(I)cc2c1=O [GL514] | 105 | 660 nM | 4.42 µM and 3.5 µM | 72.5 | – |
| C#CCOc1ccc(-c2nc3ccc(I)cc3c(=O)[nH]2)cc1 [GL516] | 126 | 14 nM | 4.58 µM and 2.46 µM and 1.9 µM | 40.8 | – |
| COc1ccc(-c2nc3ccccc3c(=O)n2C)c(OC)c1 [GL517] | 146 | > 500 nM | > 10 µM | 107 | – |
| N#CCOc1ccc(-c2nc3ccccc3c(=O)[nH]2)cc1 [GL520] | 1.74 | 0.88 nM and 0.92 nM | 2.57 µM | 89 | – |
| COc1cc(-c2nc3ccccc3c(=O)[nH]2)ccc1OCC#N [GL522] | > 10 | – | 2.27 µM and 0.97 µM | 80.6 | – |
| N#CCOc1ccc(/C=C/c2ccncn2)cc1 [GL543] | – | 4.9 nM and 6.4 nM | > 10 µM | – | IC50 (CYP1A1; Table 1, read-out: CYP1A1 IC50): > 10 µM; IC50 ([1]; Table 1, read-out: hLM IC50): > 10 µM; IC50 at 72 h [2, 5]: > 10 µM; IC50 (CYP1B1; Table 1, read-out: CYP1B1 IC50): 4.9 nM |
| N#CCOc1ccc(-c2nc(OCCCNC(=O)OCCOCCOCCOC(=O)NC34CC5CC(CC(C5)C3)C4)c3ccccc3n2)cc1 [GL581] | > 10 | < 2.5 nM | 3.58 µM | – | IC50 (CYP1A1; Table 1, read-out: CYP1A1 IC50): 3.6 µM; IC50 at 72 h [2, 5]: > 10 µM; IC50 (CYP1B1; Table 1, read-out: CYP1B1 IC50): 0.12 nM |
| COc1ccc(-c2csc(-c3ccc(O)cc3)n2)c(OC)c1 [GL650] | – | – | – | – | IC50 [3]: 5.55 µM; IC50 (CYP1A1; [6]): 1.96 µM; SI 1B1:1A1 (CYP1A1): 32; SI 1B1:HLM [1]: 89.7; IC50 (CYP1B1; [7]): 61.9 nM |
| COc1ccc(-c2csc(-c3cccnc3)n2)c(OC)c1 [GL654] | – | – | – | – | IC50 [3]: 0.0001 µM; IC50 (CYP1A1; [6]): 0.151 µM; SI 1B1:1A1 (CYP1A1): 7.6; SI 1B1:HLM [1]: 0.00082; IC50 (CYP1B1; [7]): 19.8 nM |
| Oc1ccc(-c2csc(-c3cccnc3)n2)cc1 [GL671] | – | – | – | – | IC50 [3]: 0.526 µM; IC50 (CYP1A1; [6]): 1.41 µM; SI 1B1:1A1 (CYP1A1): 0.63; SI 1B1:HLM [1]: 0.024; IC50 (CYP1B1; [7]): 2230 nM |
| Oc1ccc(-c2csc(-c3ccccn3)n2)cc1 [GL672] | – | – | – | – | IC50 [3]: 1.65 µM; IC50 (CYP1A1; [6]): 1.32 µM; SI 1B1:1A1 (CYP1A1): 1.3; SI 1B1:HLM [1]: 1.63; IC50 (CYP1B1; [7]): 1020 nM |
| COc1ccc(-c2nc(-c3ccc(F)c(C(F)(F)F)c3)cs2)c(OC)c1 [GL674] | – | – | – | – | IC50 [3]: > 10 µM; IC50 (CYP1A1; [6]): 5.08 µM; SI 1B1:1A1 (CYP1A1): 5187; SI 1B1:HLM [1]: >10204; IC50 (CYP1B1; [7]): 0.98 nM |
| c1ccc(-c2nc(-c3cccnc3)cs2)nc1 [GL681] | – | – | – | – | IC50 [3]: 3.24 µM; IC50 (CYP1A1; [6]): 0.085 µM; SI 1B1:1A1 (CYP1A1): 0.035; SI 1B1:HLM [1]: 0.14; IC50 (CYP1B1; [7]): 2390 nM |
| COc1cc(OC)cc(-c2nc(-c3ccc(F)cc3)cs2)c1 [GL683] | – | – | – | – | IC50 [3]: > 10 µM; IC50 (CYP1B1; [7]): < 0.01 nM |
| COc1cc(OC)cc(-c2nc(-c3cccc(C(F)(F)F)c3)cs2)c1 [GL684] | – | – | – | – | IC50 [3]: > 10 µM; IC50 (CYP1A1; [6]): 2.78 µM; SI 1B1:1A1 (CYP1A1): >27800; SI 1B1:HLM [1]: >1000000; IC50 (CYP1B1; [7]): < 0.01 nM |
